The values below come from ChEMBL document CHEMBL1681744, “1-((3S,4S)-4-amino-1-(4-substituted-1,3,5-triazin-2-yl) pyrrolidin-3-yl)-5,5-difluoropiperidin-2-one inhibitors of DPP-4 for the treatment of type 2 diabetes” (Bioorg Med Chem Lett, 2011).

Each structure is given as a SMILES string. Calls of active or inactive are those of the source. The calls are words filed in the database; no cut-off is given here. A value given as a limit tells only on which side of the number the result lay.

For orientation: IC50 means the concentration that gives 50% inhibition. Low values mean greater potency in that assay, high ones weaker potency in that assay. The Papp A→B is the apparent permeability from the apical to the basolateral side of a cell layer. The term half-life denotes the time in which the quantity being followed falls by half. Low values mean rapid decline, high ones slow decline. The term fraction unbound denotes free concentration divided by total concentration. The low end stands for extensive binding, the high end for weak binding.

One data set concerns the target Dipeptidyl peptidase 4 (Homo sapiens, UniProt P27487).
A further data set has as its system Liver microsomes. As to the kind of experiment: Intrinsic clearance in human liver microsomes. The class given is ADME, Microsome.
Another data set addresses Dipeptidyl peptidase 8 (Homo sapiens, UniProt Q6V1X1).
Data set [1] is described as follows: Apparent permeability from apical to basolateral side of MDCK cells by RRCK assay. The class given is ADME, cell-based, Canis lupus familiaris. As to conditions: dog.
A short description of data set [2]: Volume of distribution at steady state in rat at 1 mg/kg, iv. In kind it is ADME, organism-based. Details: dose 1 mg/kg, route intravenous. Conditions: in vivo, read-out: Vdss.
Data set [3] in a line: Half life in dog. The class given is ADME, organism-based, Canis lupus familiaris. As to conditions: in vivo.
A short description of data set [4]: Clearance in dog. The class given is ADME, organism-based, Canis lupus familiaris. Conditions: in vivo.
A short description of data set [5]: Clearance in rat plasma at 1 mg/kg, iv and 5 mg/kg, po. The class given is ADME, organism-based.
A short description of data set [6]: Half life in rat at 1 mg/kg, iv and 5 mg/kg, po. The class given is ADME, organism-based. Conditions: in vivo.
The target of a further data set is Cytochrome P450 2C9 (Homo sapiens, UniProt P11712). Description: Inhibition of CYP2C9. In kind it is ADME.
The next data set has as its target Cytochrome P450 3A4 (Homo sapiens, UniProt P08684). As to the kind of experiment: Inhibition of CYP3A4. In kind it is ADME.
The nature of data set [7]: Fraction unbound in human plasma. The class given is ADME, cell-free.
Data set [8] is described as follows: Volume of distribution at steady state in dog. In kind it is ADME, organism-based, Canis lupus familiaris. As to conditions: in vivo, read-out: Vdss.
Data set [9] is described as follows: Oral bioavailability in dog. The class given is ADME, organism-based, Canis lupus familiaris. Conditions: in vivo.
The target in another data set is Cytochrome P450 2D6 (Homo sapiens, UniProt P10635). Description: Inhibition of CYP2D6. In kind it is ADME.
Another data set has as its target T1, Cytochrome P450 1A2 (Homo sapiens, UniProt P05177).
T1 sequence (P05177 whole entry): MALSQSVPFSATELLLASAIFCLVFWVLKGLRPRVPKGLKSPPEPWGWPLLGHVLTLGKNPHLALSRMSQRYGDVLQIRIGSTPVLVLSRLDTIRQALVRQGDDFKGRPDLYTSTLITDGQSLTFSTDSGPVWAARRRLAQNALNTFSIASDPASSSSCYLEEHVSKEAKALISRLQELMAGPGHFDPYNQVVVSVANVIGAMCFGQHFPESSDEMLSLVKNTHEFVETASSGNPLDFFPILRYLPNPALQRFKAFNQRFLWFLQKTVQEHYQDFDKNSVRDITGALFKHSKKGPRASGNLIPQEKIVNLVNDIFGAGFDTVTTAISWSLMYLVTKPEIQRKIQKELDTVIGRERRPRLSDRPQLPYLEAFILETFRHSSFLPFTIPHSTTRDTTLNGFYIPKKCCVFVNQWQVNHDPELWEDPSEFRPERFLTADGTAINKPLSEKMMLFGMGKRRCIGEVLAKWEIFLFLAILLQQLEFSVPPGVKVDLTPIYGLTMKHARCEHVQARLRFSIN
Description: Inhibition of CYP1A2. The class given is ADME.

The nature of data set [10]: Oral bioavailability in rat at 5 mg/kg. The class given is ADME, organism-based. Conditions: in vivo.
Another data set relates to Rattus norvegicus. Description: Ex vivo inhibition of DPP4 in rat at 5 mg/kg, po after 16 hrs. Details: dose 5 mg/kg. In kind it is functional, organism-based.
Data set [11] is described as follows: Fraction unbound in rat plasma. In kind it is ADME, cell-free.
For a further data set, the target named is Dipeptidyl peptidase 2 (Homo sapiens, UniProt Q9UHL4). Description: Inhibition of DPP2.

Dipeptidyl peptidase 8, sequence (Q6V1X1 whole entry): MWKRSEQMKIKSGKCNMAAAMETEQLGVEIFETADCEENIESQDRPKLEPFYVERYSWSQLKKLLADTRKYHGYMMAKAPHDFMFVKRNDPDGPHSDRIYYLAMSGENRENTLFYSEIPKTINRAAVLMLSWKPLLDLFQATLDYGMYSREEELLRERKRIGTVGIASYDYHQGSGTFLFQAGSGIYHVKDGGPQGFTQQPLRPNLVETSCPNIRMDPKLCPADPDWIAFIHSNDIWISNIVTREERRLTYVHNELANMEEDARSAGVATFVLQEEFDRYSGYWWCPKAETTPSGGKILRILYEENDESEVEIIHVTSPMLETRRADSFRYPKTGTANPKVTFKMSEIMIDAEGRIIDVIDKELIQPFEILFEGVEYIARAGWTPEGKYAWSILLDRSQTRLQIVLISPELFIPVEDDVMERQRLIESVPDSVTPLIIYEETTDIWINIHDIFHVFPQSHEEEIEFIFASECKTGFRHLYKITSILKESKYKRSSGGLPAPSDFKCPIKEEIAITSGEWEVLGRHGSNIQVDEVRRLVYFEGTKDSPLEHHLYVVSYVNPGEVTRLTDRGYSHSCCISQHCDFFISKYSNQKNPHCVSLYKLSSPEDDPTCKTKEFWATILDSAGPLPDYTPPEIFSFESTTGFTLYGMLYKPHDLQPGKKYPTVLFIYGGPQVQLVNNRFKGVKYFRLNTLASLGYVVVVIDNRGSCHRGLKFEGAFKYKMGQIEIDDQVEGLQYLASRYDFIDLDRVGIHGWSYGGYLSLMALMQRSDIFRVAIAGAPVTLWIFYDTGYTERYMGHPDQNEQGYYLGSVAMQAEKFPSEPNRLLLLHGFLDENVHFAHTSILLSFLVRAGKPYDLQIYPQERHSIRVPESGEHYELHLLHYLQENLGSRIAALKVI
Dipeptidyl peptidase 4, sequence (P27487 whole entry): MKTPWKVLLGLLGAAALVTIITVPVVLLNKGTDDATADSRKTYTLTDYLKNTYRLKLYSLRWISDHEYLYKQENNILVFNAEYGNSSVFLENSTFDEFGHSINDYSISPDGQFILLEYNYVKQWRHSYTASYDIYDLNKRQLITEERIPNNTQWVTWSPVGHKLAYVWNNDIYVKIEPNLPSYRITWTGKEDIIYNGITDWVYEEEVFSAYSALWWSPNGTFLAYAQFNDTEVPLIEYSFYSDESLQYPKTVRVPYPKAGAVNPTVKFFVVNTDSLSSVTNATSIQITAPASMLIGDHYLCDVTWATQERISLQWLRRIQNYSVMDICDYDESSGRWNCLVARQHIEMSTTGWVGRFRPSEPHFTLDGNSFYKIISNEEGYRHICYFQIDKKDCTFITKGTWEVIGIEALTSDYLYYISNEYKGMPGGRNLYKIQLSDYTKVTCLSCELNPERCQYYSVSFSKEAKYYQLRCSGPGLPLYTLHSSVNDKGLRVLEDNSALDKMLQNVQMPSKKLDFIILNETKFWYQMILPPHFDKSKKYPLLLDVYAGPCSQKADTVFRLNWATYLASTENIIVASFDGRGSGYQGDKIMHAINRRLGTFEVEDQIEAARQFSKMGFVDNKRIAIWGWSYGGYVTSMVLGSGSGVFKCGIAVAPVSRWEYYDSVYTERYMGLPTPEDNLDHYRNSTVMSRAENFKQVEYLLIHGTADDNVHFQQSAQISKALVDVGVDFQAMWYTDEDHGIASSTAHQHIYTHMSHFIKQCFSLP
Cytochrome P450 2D6, sequence (P10635 whole entry): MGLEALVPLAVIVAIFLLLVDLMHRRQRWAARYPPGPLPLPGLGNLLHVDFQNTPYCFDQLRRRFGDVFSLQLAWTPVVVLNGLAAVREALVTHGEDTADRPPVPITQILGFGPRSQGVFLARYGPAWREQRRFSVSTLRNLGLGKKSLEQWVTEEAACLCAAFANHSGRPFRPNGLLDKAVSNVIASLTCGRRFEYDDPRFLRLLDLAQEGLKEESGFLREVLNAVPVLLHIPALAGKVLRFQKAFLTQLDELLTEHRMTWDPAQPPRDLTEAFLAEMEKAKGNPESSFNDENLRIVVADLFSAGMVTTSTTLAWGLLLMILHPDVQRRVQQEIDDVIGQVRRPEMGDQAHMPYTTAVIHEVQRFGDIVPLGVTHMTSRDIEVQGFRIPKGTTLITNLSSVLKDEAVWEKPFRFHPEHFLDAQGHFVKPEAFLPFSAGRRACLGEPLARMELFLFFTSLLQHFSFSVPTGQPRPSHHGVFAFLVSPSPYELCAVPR
Cytochrome P450 2C9, sequence (P11712 whole entry): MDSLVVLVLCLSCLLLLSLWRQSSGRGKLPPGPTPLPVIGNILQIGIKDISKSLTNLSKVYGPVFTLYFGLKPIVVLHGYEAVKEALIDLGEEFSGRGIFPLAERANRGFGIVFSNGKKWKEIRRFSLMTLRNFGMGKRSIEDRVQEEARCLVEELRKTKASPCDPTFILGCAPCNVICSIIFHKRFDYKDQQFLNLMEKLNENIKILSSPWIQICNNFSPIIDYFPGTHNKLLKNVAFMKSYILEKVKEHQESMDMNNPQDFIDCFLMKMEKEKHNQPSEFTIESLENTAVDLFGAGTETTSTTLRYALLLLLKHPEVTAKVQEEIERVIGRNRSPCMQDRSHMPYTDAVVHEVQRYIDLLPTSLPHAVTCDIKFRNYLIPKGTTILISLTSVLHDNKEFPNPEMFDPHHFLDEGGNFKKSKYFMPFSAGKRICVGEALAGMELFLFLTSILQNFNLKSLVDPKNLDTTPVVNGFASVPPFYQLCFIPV
Cytochrome P450 3A4, sequence (P08684 whole entry): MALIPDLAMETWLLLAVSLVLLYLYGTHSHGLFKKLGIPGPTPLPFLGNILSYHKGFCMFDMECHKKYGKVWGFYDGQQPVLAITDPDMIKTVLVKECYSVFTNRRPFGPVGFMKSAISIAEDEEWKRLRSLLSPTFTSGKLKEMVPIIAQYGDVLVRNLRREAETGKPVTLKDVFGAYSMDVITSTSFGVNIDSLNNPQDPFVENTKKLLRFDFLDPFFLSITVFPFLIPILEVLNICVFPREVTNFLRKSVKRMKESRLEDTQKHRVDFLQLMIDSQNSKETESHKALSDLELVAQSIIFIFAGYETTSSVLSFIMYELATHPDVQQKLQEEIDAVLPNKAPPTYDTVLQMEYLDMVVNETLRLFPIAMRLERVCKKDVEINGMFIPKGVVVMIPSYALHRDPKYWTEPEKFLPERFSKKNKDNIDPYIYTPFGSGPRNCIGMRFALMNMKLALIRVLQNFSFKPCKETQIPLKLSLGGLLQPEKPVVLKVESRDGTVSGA

`N[C@H]1CN(c2cc(-c3cc(F)c(F)cc3F)ncn2)C[C@@H]1N1CCCCC1=O` yielded an IC50 against Dipeptidyl peptidase 4 of 0.047 µM. In the data set on Liver microsomes, this molecule came in with a clearance of under 7.2 µL/min/mg.
As to `Cc1nc(N2C[C@H](N)[C@@H](N3CC(F)(F)CCC3=O)C2)cc(N2CCC(F)(F)C2)n1`, the IC50 is 0.013 µM against Dipeptidyl peptidase 4 and over 30 µM against Dipeptidyl peptidase 8. Further, in data set [1], the Papp A→B turned out to be 3.9 ×10⁻⁶ cm/s.
In the data set with Liver microsomes, `N[C@H]1CN(c2cc(NC3CC3)ncn2)C[C@@H]1N1CCCCC1=O` yielded a clearance of under 7 µL/min/mg.
On to `N[C@H]1CN(c2ncnc(N3CCC(F)(F)C3)n2)C[C@@H]1N1CC(F)(F)CCC1=O`, for which the Vd in data set [2] is 8.4 L/kg; in data set [8], 1.9 L/kg. The values for the half-life in data set [3] and in data set [6] were 5.9 h and 3.6 h, respectively. Further, the values for the clearance in [4] and in [5] were 7.2 mL/min/kg and 46 mL/min/kg, respectively. For the same molecule, the IC50 was over 30 µM against Dipeptidyl peptidase 8; over 15 µM at Cytochrome P450 2C9; over 15 µM at Cytochrome P450 3A4; over 15 µM on Cytochrome P450 2D6; over 15 µM on Cytochrome P450 1A2. In addition, the fraction unbound in data set [7] came out at 0.83. The Papp A→B in data set [1] was 5 ×10⁻⁶ cm/s. Further, the bioavailability in data set [9] amounted to 150%; in [10] it was 90%.
In the case of `N[C@H]1CN(c2cc(N3CCC(F)(F)C3)ncn2)C[C@@H]1N1CCCCC1=O`, the Vd in data set [2] is 2.3 L/kg. Moreover, the inhibition result in the data set on Rattus norvegicus is “Active”. For the same molecule, the IC50 is 0.026 µM against Dipeptidyl peptidase 4 and over 30 µM at Dipeptidyl peptidase 8. In addition, the clearance in data set [5] turned out to be 60.1 mL/min/kg. For the same molecule, the half-life in data set [6] was 0.78 h. Besides, in data set [1], the Papp A→B came out at 1.8 ×10⁻⁶ cm/s. The molecule also returned a fraction unbound in data set [11] of 0.75. Moreover, the bioavailability in data set [10] amounted to 21%.
Turning to `N[C@H]1CN(c2ncnc(N3CCC(F)(F)C3)n2)C[C@@H]1N1CCCCC1=O`, the Vd in [2] turned out to be 4.7 L/kg. In addition, in the data set on Rattus norvegicus, the inhibition result is “Active”. In data set [5], this molecule yielded a clearance of 36.8 mL/min/kg. The same molecule gave a half-life in [6] of 5 h. Also, the IC50 against Dipeptidyl peptidase 8 is over 30 µM. In addition, the Papp A→B in data set [1] was found to be 3.8 ×10⁻⁶ cm/s. In [11], this molecule gave a fraction unbound of 0.86. In addition, the bioavailability in data set [10] amounted to 52%.
On to `N[C@H]1CN(c2cc(-c3cc(F)cc(F)c3F)ncn2)C[C@@H]1c1ccccc1`, for which the clearance in the data set with Liver microsomes turned out to be 85 µL/min/mg.
As to `N[C@H]1CN(c2cc(N3CCC(F)(F)C3)ncn2)C[C@@H]1N1CC(F)(F)CCC1=O`, the Vd in [2] was determined as 5.7 L/kg. Besides, in [5], the clearance amounted to 84 mL/min/kg. This molecule gave a half-life in data set [6] of 2.4 h. This molecule had an IC50 at Dipeptidyl peptidase 8 of over 30 µM. For the same molecule, in [1], the Papp A→B amounted to 3.4 ×10⁻⁶ cm/s. Also, the fraction unbound in data set [11] worked out at 0.82. The bioavailability in data set [10] came out at 50%.
Molecule `N[C@H]1CN(c2cc(N3CCc4nocc4C3)ncn2)C[C@@H]1N1CCCCC1=O` showed an IC50 against Dipeptidyl peptidase 4 of 0.012 µM. Also, in the data set on Liver microsomes, the clearance is under 7.5 µL/min/mg.
For `N[C@H]1CN(c2cc(NC3CC3)ncn2)C[C@@H]1c1ccccc1`, in that order: 0.019 µM and 38 µL/min/mg.
`N[C@H]1CN(c2cc(N3CCc4nocc4C3)ncn2)C[C@@H]1N1CCCC1=O` registered a clearance in the data set on Liver microsomes of under 7 µL/min/mg.
For `N[C@H]1CN(c2ncnc(-c3ccccc3)n2)C[C@@H]1N1CCCCC1=O`, the IC50 against Dipeptidyl peptidase 2 was over 30 µM. For the same molecule, in data set [1], the Papp A→B turned out to be 35.7 ×10⁻⁶ cm/s.
For `COc1ccc(-c2cc(N3C[C@H](N)[C@@H](N4CCCCC4=O)C3)ncn2)cn1`, the IC50 on Dipeptidyl peptidase 2 was over 30 µM. Also, the Papp A→B in [1] came out at 2.7 ×10⁻⁶ cm/s.
As to `N[C@H]1CN(c2cc(NC3CC3)ncn2)C[C@@H]1N1CCCC1=O`, the clearance with Liver microsomes is under 7 µL/min/mg.
In the case of `N[C@H]1CN(c2cc(N3CCc4nocc4C3)ncn2)C[C@@H]1c1ccccc1`, the IC50 against Dipeptidyl peptidase 4 worked out at 0.0016 µM. Besides, the clearance with Liver microsomes was 56 µL/min/mg.
Turning to `N[C@H]1CN(c2cc(-c3cc(F)c(F)cc3F)ncn2)C[C@@H]1N1CCCC1=O`, it took 0.488 µM to reach half-maximal inhibition at Dipeptidyl peptidase 4 (IC50). For the same molecule, the clearance in the data set with Liver microsomes is under 7 µL/min/mg.
